Assay results reported in PubChem BioAssay (NCI).
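The compound was tested at five concentrations on cells cultured in 96-well plates, with a 48-hour exposure period. Here, GI50 denotes the concentration required for 50% inhibition of growth. TGI is the concentration that stops growth completely.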

Key:
Assay in all cases: growth of human tumour cells (NCI), 48 h
[1] = tested on: HOP-62 NSCLC
[2] = tested on: MDA-MB-231 breast
[3] = tested on: U251 CNS
[4] = tested on: HL-60(TB) leukemia
[5] = tested on: MDA-MB-435
[6] = tested on: NCI-H23 lung
[7] = tested on: SNB-75 CNS
[8] = tested on: DU-145 prostate
[9] = tested on: NCI-H522 lung
[10] = tested on: NCI-H460 lung

Structure (SMILES) | TGI [1] | TGI [2] | TGI [3] | TGI [4] | TGI [5] | TGI [6] | TGI [7] | TGI [8] | TGI [9] | TGI [10] | GI50 [1] | GI50 [2] | GI50 [3] | GI50 [4] | GI50 [5] | GI50 [6] | GI50 [7] | GI50 [8] | GI50 [9] | GI50 [10]
N=c1c2c(=S)n(-c3ccccc3)c(=S)n(-c3ccccc3)c2nc(SCCCN2CCN(c3cccc(Cl)c3)CC2)n1-c1ccccc1 | > 100 µM | 70.9 µM | > 100 µM | > 100 µM | > 100 µM | > 100 µM | > 100 µM | > 100 µM | > 100 µM | > 100 µM |  |  |  |  |  |  |  |  |  | 
Nc1nc(Cl)cc(OCC2(CO)CC(OCc3ccccc3)C2)n1 (stereo not drawn) |  |  |  |  |  |  |  |  |  |  | 95.7 µM | 26.2 µM | 55 µM | 40 µM | 69.4 µM | 36.5 µM | 27.9 µM | 66.3 µM | 47.2 µM | 66.3 µM
N=C(N)c1ccc(-c2ccc(-c3ccccc3)s2)cc1 |  | 2.87 µM |  |  | 3.03 µM | 4.53 µM |  | 3.17 µM |  |  |  | 1.43 µM |  |  | 1.66 µM | 2 µM |  | 1.75 µM |  | 
CCCCCCCC/C=C\CCCCCCCC(=O)O | > 500 µM |  | 231 µM | 290 µM |  | 146 µM | 29.6 µM |  | 210 µM | 192 µM |  |  |  |  |  |  |  |  |  | 
CC(=O)Oc1ccc2c(c1)oc1c3ccc(OC(C)=O)cc3n(C)c(=O)c21 | > 100 µM | > 100 µM | > 100 µM |  | > 100 µM | > 100 µM | 4.16 µM | > 100 µM |  | > 100 µM |  |  |  |  |  |  |  |  |  | 
O=C1C=CC2=[N+]([O-])C(c3ccccc3)(c3ccccc3)C(=Nc3ccccc3)C2=C1 | 29.3 µM |  | 7.32 µM |  |  | 5.64 µM | 8.74 µM |  | 3.02 µM | 34.4 µM |  |  |  |  |  |  |  |  |  | 
Cc1cc(C)c2c(c1)CC1(Cc3c(C)ccc(C)c3C1=O)C2=O (stereo not drawn) |  | > 100 µM | > 100 µM | > 100 µM | > 100 µM |  | > 100 µM | > 100 µM | > 100 µM | > 100 µM |  |  |  |  |  |  |  |  |  | 
CCNc1nnc(-c2nsc3ccccc23)s1 | > 100 µM |  | > 100 µM | > 100 µM |  | > 100 µM | 36.1 µM |  |  | 88.6 µM |  |  |  |  |  |  |  |  |  | 
COC(=O)c1cccc(N[C@@H]2c3cc4c(cc3C(c3cc(OC)c(O)c(OC)c3)[C@H]3C(=O)OCC32)OCO4)c1 (stereo partly drawn) | 0.937 µM |  | 12.2 µM | 1.1 µM |  | 4.01 µM | > 21 µM |  | 8.75 µM | 2.24 µM |  |  |  |  |  |  |  |  |  | 
C=C1C(=O)C[C@@]23CCC[C@@]12CC(OCOC)C3 (stereo partly drawn) | 25.9 µM |  | 21 µM | 4.76 µM |  | 11.1 µM | 6.41 µM |  | 0.675 µM | 13.2 µM |  |  |  |  |  |  |  |  |  | 
S=P1(N2CCCCC2)Oc2ccc3ccccc3c2-c2c(ccc3ccccc23)O1 | > 100 µM |  | > 100 µM | > 100 µM |  | > 100 µM | > 92.1 µM |  | > 100 µM | > 91.6 µM |  |  |  |  |  |  |  |  |  | 
Cc1ccc([N+](=O)[O-])cc1S(=O)(=O)Nc1ccc(C2=NNC(c3ccccc3O)C2)cc1 (stereo not drawn) | 57.7 µM | > 100 µM |  | 61.8 µM | 50.6 µM | 67.7 µM | > 100 µM | > 100 µM | > 100 µM | 80.6 µM |  |  |  |  |  |  |  |  |  | 
